US11608328B2, “Chemical probes to identify anti-mycobacterial MmpL3 inhibitors” (Creighton University, priority 2019, dated 2023)
Values after ≈ are worked out from the molar mass of the structure shown. Values joined by “and” are separate entries in the source; they are usually repeats but may differ in a detail not shown here. Identical values can stand only once. “Also recorded” adds a separate entry of the source. Like-named read-outs stand apart in the source and are kept apart here. Marks after values point to notes of the source that are not given here.

Tests used:
Mtb [1] = conditions: reported by Brown et al., Bioorg. Med. Chem. 2011; cited from earlier work
[2] = system: MsmgΔmmpL3 expressing wild-type mmpL3tb; assay: microbe, parasite or virus in culture; assay type: cell-based; conditions: MmpL3 WT
[3] = system: MsmgΔmmpL3 expressing mmpL3tb L189R; assay type: cell-based, Mycobacterium smegmatis
[4] = system: MsmgΔmmpL3 expressing mmpL3tb G253E; assay type: cell-based, Mycobacterium smegmatis
[5] = system: MsmgΔmmpL3 expressing mmpL3tb S288T; assay type: cell-based, Mycobacterium smegmatis
[6] = system: MsmgΔmmpL3 expressing mmpL3tb S309C; assay type: cell-based, Mycobacterium smegmatis
[7] = system: MsmgΔmmpL3 expressing mmpL3tb T311I; assay type: cell-based, Mycobacterium smegmatis
[8] = system: MsmgΔmmpL3 expressing mmpL3tb Q372R; assay type: cell-based, Mycobacterium smegmatis
[9] = system: MsmgΔmmpL3 expressing mmpL3tb L567P; assay type: cell-based, Mycobacterium smegmatis
[10] = system: MsmgΔmmpL3 expressing mmpL3tb S591I; assay type: cell-based, Mycobacterium smegmatis
[11] = system: MsmgΔmmpL3 expressing mmpL3tb F644C; assay type: cell-based, Mycobacterium smegmatis
[12] = system: MsmgΔmmpL3 expressing mmpL3tb V684A; assay type: cell-based, Mycobacterium smegmatis
[13] = system: MsmgΔmmpL3 expressing mmpL3tb LI89A; assay: microbe, parasite or virus in culture; assay type: cell-based; conditions: Table 2, mutant LI89A
[14] = system: MsmgΔmmpL3 expressing mmpL3tb G253R; assay type: cell-based, Mycobacterium smegmatis
[15] = system: MsmgΔmmpL3 expressing mmpL3tb G253W; assay type: cell-based, Mycobacterium smegmatis
[16] = system: MsmgΔmmpL3 expressing mmpL3tb S591W; assay type: cell-based, Mycobacterium smegmatis
[17] = system: MsmgΔmmpL3 expressing mmpL3tb S591G; assay type: cell-based, Mycobacterium smegmatis
[18] = system: MsmgΔmmpL3 expressing mmpL3tb F644C/I/L; assay type: cell-based, Mycobacterium smegmatis
[19] = system: MsmgΔmmpL3 expressing mmpL3tb F644Y; assay type: cell-based, Mycobacterium smegmatis
[20] = system: MsmgΔmmpL3 expressing mmpL3tb V684I; assay type: cell-based, Mycobacterium smegmatis
[21] = system: MsmgΔmmpL3 expressing mmpL3tb V684W; assay type: cell-based, Mycobacterium smegmatis
Mtb [22] = assay: MIC values against Mtb used for the PMF assays; assay type: cell-based, Mycobacterium tuberculosis; conditions: against Mtb, FIG. 8 legend, read-out: MIC values
purified MmpL3tb protein = purified MmpL3tb protein (Mycobacterium tuberculosis, UniProt P9WJV5); assay: Surface Plasmon Resonance binding to immobilized MmpL3tb; conditions: for ka2 / kd1 / kd2 / ka1: SPR global fit; for ka1: HEPES-TX buffer with 5% DMSO; for Model (best-fit kinetic model): SPR sensorgrams fit globally; for Kd: equilibrium dissociation constant calculated from the rate constants; for SPR binding signal: in words
purified MmpL3tb protein, sequence (P9WJV5 whole entry): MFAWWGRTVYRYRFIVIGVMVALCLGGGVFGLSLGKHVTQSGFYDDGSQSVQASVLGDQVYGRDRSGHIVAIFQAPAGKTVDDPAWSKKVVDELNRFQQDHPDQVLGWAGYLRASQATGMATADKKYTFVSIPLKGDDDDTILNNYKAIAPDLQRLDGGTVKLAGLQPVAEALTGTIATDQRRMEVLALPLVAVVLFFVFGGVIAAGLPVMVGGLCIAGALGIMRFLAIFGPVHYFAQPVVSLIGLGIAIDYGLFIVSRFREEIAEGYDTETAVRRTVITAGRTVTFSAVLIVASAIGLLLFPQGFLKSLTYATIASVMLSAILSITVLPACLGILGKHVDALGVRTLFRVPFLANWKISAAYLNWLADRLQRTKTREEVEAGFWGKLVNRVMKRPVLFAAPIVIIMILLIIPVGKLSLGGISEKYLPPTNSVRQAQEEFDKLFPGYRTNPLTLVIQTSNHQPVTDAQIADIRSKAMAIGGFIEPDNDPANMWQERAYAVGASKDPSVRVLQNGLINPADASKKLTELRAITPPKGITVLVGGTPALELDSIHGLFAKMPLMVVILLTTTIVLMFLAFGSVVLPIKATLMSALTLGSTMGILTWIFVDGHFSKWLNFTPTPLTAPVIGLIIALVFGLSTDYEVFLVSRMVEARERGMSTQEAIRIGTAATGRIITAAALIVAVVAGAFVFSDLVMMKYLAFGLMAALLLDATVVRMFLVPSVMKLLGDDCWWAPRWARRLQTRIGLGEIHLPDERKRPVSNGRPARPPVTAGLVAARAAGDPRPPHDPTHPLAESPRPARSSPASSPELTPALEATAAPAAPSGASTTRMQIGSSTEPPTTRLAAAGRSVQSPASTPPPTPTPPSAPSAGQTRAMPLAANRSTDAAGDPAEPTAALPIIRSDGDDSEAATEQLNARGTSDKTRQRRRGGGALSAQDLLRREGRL

MmpL3tb (MmpL3^WT) = MmpL3tb (MmpL3^WT) (Mycobacterium tuberculosis, UniProt P9WJV5); assay type: binding; conditions: 50, 100 and 200 μM
MmpL3tb (MmpL3^WT), sequence (P9WJV5 whole entry): as above

purified MmpL3-GFP = purified MmpL3-GFP (Mycobacterium tuberculosis, UniProt P9WJV5); assay type: binding; conditions: 2 μM Compound 2 with increasing inhibitor concentrations
purified MmpL3-GFP, sequence (P9WJV5 whole entry): as above

[23] = system: transfer of mycolic acids onto their cell envelope acceptors in MsmgΔmmpL3/pMVGH1-mmpL3tb; assay type: cell-based; conditions: 3 hours
[24] = system: transmembrane potential (ΔΨ) of intact Mtb H37Rv mc^26206 cells; assay: Membrane potential measurement with DiOC2(3) in intact cells; assay type: cell-based, Mycobacterium tuberculosis
[25] = system: transmembrane electrochemical proton gradient (ΔpH) of intact Mtb H37Rv mc^26206 cells; assay: Electrochemical proton gradient measurement with CMFDA in intact cells; assay type: cell-based, Mycobacterium tuberculosis
[26] = system: Mtb H37Rv mc^26206 inverted membrane vesicles (IMVs); assay: Succinate-driven proton translocation assay (ACMA) in inverted membrane vesicles; assay type: biochemical, Mycobacterium tuberculosis; conditions: one and four times MIC against Mtb
Protocol: (§1) FIG. 19A: The reactions were initiated by adding 5 mM succinate. Upon stabilization of the signal, control compounds (INH, RIF, nigericin), the MmpL3 inhibitors or diluent (water, used for INH, or 0.2% DMSO, used for all other compounds) were added and proton translocation monitored fluorimetrically. MmpL3 inhibitors and controls were used at one and four times their MIC concentrations against Mtb. Shown are the averages and standard deviations (error bars) of triplicate measurements.
(§2) Succinate-driven proton translocation assays with the fluorescent substrate ACMA were conducted as previously described (see e.g., Li et al. J. Med. Chem. 2014, 57: 3126-3139) to determine the effect of MmpL3 inhibitors on the electrochemical proton gradient of Mtb H37Rv mc^26206 and E. coli BL21(DE3) IMVs. IMVs (0.18 mg/mL membrane proteins) were pre-incubated at 37° C. in 10 mM HEPES-KOH pH 7.5, 100 mM KCl, 5 mM MgCl2 containing 2 μM ACMA and the baseline monitored for 10 min with a fluorescence spectrophotometer (Victor X5, PerkinElmer). The reaction was then initiated by adding 5 mM succinate. Upon stabilization of the signal, control compounds (INH, RIF, nigericin), MmpL3 inhibitors, or diluent (0.2% DMSO or water) were added and proton translocation monitored fluorimetrically. The excitation and emission wavelengths were 410 nm and 480 nm, respectively.

E. coli BL21(DE3) IMVs = assay: as above; assay type: biochemical; conditions: 2 μg/mL
Protocol: as §1, §2

[27] = BLI assay buffer
[28] = system: MsmgΔmmpL3 expressing mmpL3tb V684G; assay type: cell-based, Mycobacterium smegmatis
[29] = biological target: T1, MmpL3tb- and MmpL3tb-GFP-coated particles (Mycobacterium tuberculosis, UniProt P9WJV5); assay type: binding; conditions: 15 min at room temperature; various probe concentrations
T1 construct: His tag; made in house; host or cells: Mycobacterium smegmatis ΔmmpL3 carrying pMVGH1-mmpL3tb or pMVGH1-mmpL3tb-gfp
T1 sequence (P9WJV5 whole entry): as above

[30] = system: MmpL3tb-GFP in MsmgΔmmpL3/pMVGH1-mmpL3tb-GFP cells; assay type: cell-based; conditions: 2 μM probe, 4 h at 37° C.
[31] = biological target: MmpL3tb in MsmgΔmmpL3/pMVGH1-mmpL3tb cells (Mycobacterium tuberculosis, UniProt P9WJV5); assay type: cell-based
MmpL3tb in MsmgΔmmpL3/pMVGH1-mmpL3tb cells, sequence (P9WJV5 whole entry, looked up, stated change not applied): as the sequence (P9WJV5 whole entry) above

[32] = Mycolicibacterium smegmatis, Tables 1A-1B, read-out: MIC

Row | SMILES | MIC [3] | MIC [4] | MIC [5] | MIC [6] | MIC [7] [µg/mL] | MIC [8] | MIC [9] | MIC [10] | MIC [11] | MIC [12] | MIC [14] | MIC [15] | MIC [16] | MIC [17] | ka2 (purified MmpL3tb protein) | kd1 (purified MmpL3tb protein) [s⁻¹] | kd2 (purified MmpL3tb protein) [s⁻¹] | ka1 (purified MmpL3tb protein) [M⁻¹ s⁻¹] | Model (best-fit kinetic model) (purified MmpL3tb protein) | displacement of Compound 2 from purified MmpL3tb (purified MmpL3-GFP) | further results
1 | COC(=O)c1ccc(NC(=O)NC23CC4CC(CC(C4)C2)C3)cc1O [AU, methyl 1-(1-adamantyl)-3-(4-aminosalicylate)urea] |  |  |  |  |  |  |  |  |  |  |  |  |  |  |  |  |  |  |  |  | Mtb MIC value (Mtb [1]): 0.4 µg/mL
2 | Cc1c(CN2CCN(C)CC2)cc(-c2ccc(Cl)cc2)n1-c1ccc(Cl)cc1 [BM212] | 12.5 µg/mL and 8 µg/mL | 12.5 µg/mL and 8 µg/mL | 25.0^b μg/mL | 12.5 µg/mL (≈ 30.2 µM) | 12.5 (≈ 30.2 µM) | 12.5 µg/mL (≈ 30.2 µM) | 12.5 µg/mL (≈ 30.2 µM) | 25.0^b μg/mL and 16 μg/mL | 3.13 µg/mL (≈ 7.55 µM) | 6.25 µg/mL and 4 µg/mL | 8 µg/mL (≈ 19.3 µM) | 8 µg/mL (≈ 19.3 µM) | 4^c μg/mL | 1^c μg/mL | 0.005 1/RU*s | 1.67 | 0.0222 | 1054.8 | Two-state reaction | clear concentration-dependent displacement | MIC ([2]; Table 2): 4 µg/mL (≈ 9.65 µM); MIC ([2]; Tables 1A-1B): 6.25 µg/mL (≈ 15.1 µM); MIC [13]: 8 µg/mL (≈ 19.3 µM); MIC [18]: 4 µg/mL (≈ 9.65 µM); MIC [19]: 8 µg/mL (≈ 19.3 µM); MIC [20]: 2 µg/mL (≈ 4.83 µM); MIC [21]: 4 µg/mL (≈ 9.65 µM); MIC (Mtb [22]): 3.76 µM (≈ 1.56 µg/mL); Kd (purified MmpL3tb protein; read-out: KD1): 1290 µM; BLI binding signal (MmpL3tb (MmpL3^WT)): only yielded weak binding signals; inhibition of transfer of mycolic acids to cell envelope acceptors [23]: actually targeted MmpL3tb in the Msmg recombinant system; effect on membrane potential (ΔΨ) [24]: only showed an effect on ΔΨ at the highest concentration tested (8×MIC); effect on electrochemical proton gradient (ΔpH) [25]: collapsed ΔpH; effect on ΔpH of Mtb IMVs [26]: increase of fluorescence intensity indicative of ΔpH collapse; effect on ΔpH of E. coli IMVs (E. coli BL21(DE3) IMVs): showed no such activity; solubility limit in 5% DMSO [27]: 50 µM (≈ 20.7 µg/mL)
3 | C[C@@H]1C(NC(=O)c2cc3cc(OCc4cn(CCCCCCNC(=O)c5ccc(-c6c7ccc(=[N+](C)C)cc-7oc7cc(N(C)C)ccc67)c(C(=O)O)c5)nn4)ccc3[nH]2)C[C@H]2C[C@@H]1C2(C)C (some centres unmarked) [Compound 2] | 8 µg/mL | 8 µg/mL | 4 µg/mL | 8 µg/mL | 4 | 16^b μg/mL | 4 µg/mL | 8 µg/mL | 8 µg/mL | 4 µg/mL |  |  |  |  | 540.582 1/RU*s | 0.02 | 0.1556 | 36380.1 | Heterogeneous ligand |  | MIC [2, 32]: 4 µg/mL; MIC [28]: 4 µg/mL; Kd (purified MmpL3tb protein; read-out: KD1): 0.5 µM; Kd (purified MmpL3tb protein; read-out: KD2): 288 µM; SPR binding signal (purified MmpL3tb protein): strong SPR signals; probe binding to coated particles (MFI) [29]: concentration-dependent binding; colocalization with MmpL3tb-GFP [30]: colocalization of the probes with MmpL3tb-GFP
4 | NNC(=O)c1ccncc1 [INH, isoniazid] |  |  |  |  |  |  |  |  |  |  |  |  |  |  |  |  |  |  |  | No significant displacement | MIC (Mtb [22]; Mycobacterium tuberculosis): 0.58 µM (≈ 0.0795 µg/mL); displacement of probe (Compound 1 or Compound 2) in intact cells [31]: not observed
5 | CC(C)=CCC/C(C)=C/CNCCNC1C2CC3CC(C2)CC1C3 (centres unmarked) [SQ109] |  | 1.25^b μg/mL and 1.25 μg/mL | 3.13^a μg/mL | 6.25^a μg/mL | 0.78 (≈ 2.36 µM) | 0.78 µg/mL (≈ 2.36 µM) | 1.56^b μg/mL |  | 1.56^b μg/mL |  | 0.31-0.62^c μg/mL | 0.15-0.3^d μg/mL | 0.31^c μg/mL | 0.31^c μg/mL | 0.025 1/RU*s | 2.32 | 0.0436 | 1208.2 | Two-state reaction | not significant | MIC ([2]; Mycolicibacterium smegmatis, Table 2, read-out: MIC): 0.31 µg/mL (≈ 0.938 µM); MIC [2, 32]: 0.39 µg/mL (≈ 1.18 µM); MIC [28]: 0.39 μg/mL and 0.31-0.62^ μg/mL; MIC ([13]; Mycolicibacterium smegmatis, read-out: MIC): 0.31 to 0.62 µg/mL (≈ 0.938 to 1.88 µM); MIC [18]: 0.62-1.25^ μg/mL; MIC [19]: 0.15-0.31^c μg/mL; MIC [20]: 0.31-0.62^ μg/mL; MIC [21]: 0.07-0.15^d μg/mL; MIC (Mtb [22]; Mycobacterium tuberculosis): 2.36 µM (≈ 0.78 µg/mL); SPR binding signal (purified MmpL3tb protein): strong SPR signals; BLI binding signal (MmpL3tb (MmpL3^WT)): consistently bound to MmpL3tb with the strongest signals; inhibition of transfer of mycolic acids to cell envelope acceptors [23]: actually targeted MmpL3tb in the Msmg recombinant system; effect on membrane potential (ΔΨ) [24]: dissipated ΔΨ in a concentration-dependent manner; effect on electrochemical proton gradient (ΔpH) [25]: collapsed ΔpH; effect on ΔpH of Mtb IMVs [26]: increase of fluorescence intensity indicative of ΔpH collapse; effect on ΔpH of E. coli IMVs (E. coli BL21(DE3) IMVs): collapse the ΔpH of E. coli IMVs; also recorded: similarly dissipated the pH gradient of IMVs prepared from E. coli
